Like-named read-outs stand apart in the source and are kept apart here.
Key:
[1] = test system: live vaccinia virus (Dryvax); parameters: species or system A/NCr mice; settings: mouse, in vivo
[2] = test system: orthopoxvirus; parameters: species or system A/NCr mice; settings: mouse, in vivo
[3] = in vivo; cited from earlier work

Molecule	attenuation of lesion development and acceleration of lesion resolution, compared with CDV [1]	severity of vaccine lesions and healing [1]	Lesion score [1]	Lesion score ([1]; 12.5 mg/kg)	post challenge anti-orthopoxvirus antibody titers, presence vs absence of CDV [2]	pre-challenge anti-orthopoxvirus antibody titers, presence vs absence of CDV [2]	oral bioavailability [3]
hexadecyloxypropyl-CDV [HDP-CDV]	more efficacious than CDV	decreased the severity of vaccine lesions and facilitated healing	–	–	–	–	–
Nc1ccn(C[C@@H](CO)OCP(=O)(O)O)c(=O)n1 [Cidofovir]	–	decreased the severity of vaccine lesions and facilitated healing	0	0	similar	lower	low
